Measurements as given in patent publication US20080089910A1, “Attenuated Herpes Simplex Virus Type-2, Vectors Thereof and Immunogenic Compositions Thereof” (priority 2004, published 2008).

Tests used:
Assay in all cases: Viral plaque reduction assay, sensitivity to acyclovir
Format in all cases: cell-based, herpes simplex virus type 2
[1] = tested on: UL24Δ; settings: Human alphaherpesvirus 2; UL24Δ on Vero cells, plaques after 72 hours; read-out: IC50 (50% inhibitory concentration) of acyclovir
Experimental: (§1) Each of the viruses were plated on Vero cell monolayers in the presence of various concentrations (0-16 μM) of acyclovir. Plaques that formed after 72 hours post infection were counted and the data was used to generate the IC50 of ACV for each virus.
(§2) Plaque reduction assay. Plaque reduction assay was used as described previously (Visalli et al., 2003) with the following modifications. Vero cells were infected with approximately 50 to 100 PFU of virus per well. Acyclovir (ACV) was diluted to the desired concentrations in Dulbecco's Modified Eagle Medium (DMEM) and applied to uninfected Vero monolayers for a thirty minute pre-incubation before the addition of virus. Positive control wells received virus without ACV. Monolayers were incubated for three days at 37° C., fixed, and stained. Plaques were counted, and the data are presented as the mean of at least three independent assays.

[2] = tested on: HSV-2 186; settings: Human alphaherpesvirus 2; HSV-2 186 on Vero cells, plaques after 72 hours; read-out: IC50 (50% inhibitory concentration) of acyclovir
Experimental: as §1, §2

[3] = tested on: UL24R; settings: Human alphaherpesvirus 2; UL24R on Vero cells, plaques after 72 hours; read-out: IC50 (50% inhibitory concentration) of acyclovir
Experimental: as §1, §2

Measured: IC50

Nc1nc2c(ncn2COCCO)c(=O)[nH]1 [acyclovir]
~3000 nM: all assays above
